According to patent US20250270190A1, “KIT INHIBITORS” (BLUEPRINT MEDICINES CORPORATION, priority 2022, published 2025):

Molecular target: T1, c-kit autophosphorylation (Phospho c-Kit Tyr721) in HMC 1.1 (exon 11/13) cells, V654A (Homo sapiens, UniProt P10721, V560G/V654A)
T1 construct: endogenous in cells; host or cells: HMC 1.1 (exon 11/13) cells
Test: pKIT Meso Scale Discovery (MSD) assay, inhibition of autophosphorylation of KIT, HMC1.1_V654A
Format: cell-based
Conditions: Table 1, cell line not named for Table 1, b1056 names pKIT HMC1.1_V654A, read-out: Code (IC50 for inhibition of autophosphorylation of KIT, pKIT MSD assay)
Excerpt: In this MSD assay, specific capture antibodies for the analytes were coated in arrays in each well of a 96-well carbon electrode plate surface. The detection system used SULFO-TAG™ labels that emit light upon electrochemical stimulation initiated at the electrode surfaces of the […] and MULTI-SPOT® plates. The electrical stimulation was decoupled from the output signal, which was light and generated assays with minimal background. The goal of this assay was to assess the percent inhibition of autophosphorylation of c-kit in cells when treated with compounds of the disclosure in a dose-dependent manner.
HMC1.1 cells were maintained in IMDM media supplemented with 20% Calf Serum with Iron and 100 units/mL Penicillin-Streptomycin and grown in a 37° C. humidified tissue culture incubator. HMC1.1 cells were passaged by 1:5 dilution into fresh IMDM media supplemented with 20% Calf Serum with Iron and 100 units/mL Penicillin-Streptomycin every 5-7 days and were discarded after 20 passages.
Seeding was performed as follows: HMC cells were brought to 1×10^6 cells/mL in fresh phenol red free, serum-free, iron-free IDM media with Pen/Strep; cells were seeded/plated into respective U-bottom plate by dispensing 50 μL/well (50,000 cells) using the Multidrop, and covered and incubated cells at 37° C. in a humidified tissue culture incubator for 4 hours (starvation).
Dosing was performed as follows: The compound mother plate was prepared by adding 16 μL of compound to 24 μL of DMSO to row A, odd-numbered columns of screen matrix plate. […] Intermediate plates were prepared in V-bottom plates by dispensing 98 μL of phenol red free, serum free IMDM media with Pen/Strep into all wells. 2 μL DMSO or 2 μL 10 mM staurosporine was added to appropriate control wells. At the end of four hours, the Bravo protocol 10 cpds vertical dose MSD 2 U-plates 96-well was used to: add 2 μL from the compound plate to the intermediate plate and dose cells with 7 μL from the intermediate plate. The cells were covered and incubated at 37° C. in a humidified tissue culture incubator for 90 min. The complete lysis buffer was prepared with AlphaLISA 5× Lysis Buffer supplemented with 1× protease inhibitor cocktail and kept on ice. The cells were pelleted by centrifuging plate at 2500×g for 5 min, 4° C. and media removed. Complete lysis buffer was added (14 μL/well). The cells were covered and shaken at 4° C. on a plate shaker at 600 rpm for 30 min and kept cold
The MSD protocol was preformed as follows: Tris Wash Buffer (2L) was prepared by diluting 10× stock of Tris Wash Buffer to 1× in water. Blocking Solution was prepared by dissolving 600 mg Blocker A in 20 mL 1× Trish Wash Buffer (per plate). The Antibody Dilution Buffer was prepared by mixing 1 mL Blocking solution and 2 mL 1× Trish Wash Buffer (per plate) and kept on ice. Blocking Solution was added (150 μL/well) to each MSD plate using a multichannel repeater pipette. The plate was covered and incubated at room temperature on a plate shaker at 700 rpm for hr. The Bio Tek protocol RL-96w-wash-MSD_stacker_fromC was used to wash plates 3× with 150 μL/well. Cells were pelleted by centrifuging lysate plates at 2500×g for 5 mins. The Bravo protocol was used (transfer 25 ul supernatants from V-96 to assay plate) to transfer 25 μL sample lysate per well to each MSD plate. The plates were covered and incubated at room temperature on a plate shaker at 700 rpm for hr. The Bio Tek protocol RL-96w-wash-MSD_stacker_fromC was used to wash plates 3× with 150 μL/well. The Detection Antibody Solution was prepared by diluting the 60 μL of the 50× antibody stock in 2.94 mL of the Antibody Dilution Buffer (per plate) and kept on ice. 25 μL/well of detection antibody solution was added to each MSD plate. The plates were covered and incubated at room temperature on a plate shaker at 700 rpm for 1 hr. The Read Buffer was prepared by diluting 5 mL of 4× stock of Read Buffer to 1× in 15 mL water (per plate).

T1 sequence (P10721 26-976 V560G/V654A): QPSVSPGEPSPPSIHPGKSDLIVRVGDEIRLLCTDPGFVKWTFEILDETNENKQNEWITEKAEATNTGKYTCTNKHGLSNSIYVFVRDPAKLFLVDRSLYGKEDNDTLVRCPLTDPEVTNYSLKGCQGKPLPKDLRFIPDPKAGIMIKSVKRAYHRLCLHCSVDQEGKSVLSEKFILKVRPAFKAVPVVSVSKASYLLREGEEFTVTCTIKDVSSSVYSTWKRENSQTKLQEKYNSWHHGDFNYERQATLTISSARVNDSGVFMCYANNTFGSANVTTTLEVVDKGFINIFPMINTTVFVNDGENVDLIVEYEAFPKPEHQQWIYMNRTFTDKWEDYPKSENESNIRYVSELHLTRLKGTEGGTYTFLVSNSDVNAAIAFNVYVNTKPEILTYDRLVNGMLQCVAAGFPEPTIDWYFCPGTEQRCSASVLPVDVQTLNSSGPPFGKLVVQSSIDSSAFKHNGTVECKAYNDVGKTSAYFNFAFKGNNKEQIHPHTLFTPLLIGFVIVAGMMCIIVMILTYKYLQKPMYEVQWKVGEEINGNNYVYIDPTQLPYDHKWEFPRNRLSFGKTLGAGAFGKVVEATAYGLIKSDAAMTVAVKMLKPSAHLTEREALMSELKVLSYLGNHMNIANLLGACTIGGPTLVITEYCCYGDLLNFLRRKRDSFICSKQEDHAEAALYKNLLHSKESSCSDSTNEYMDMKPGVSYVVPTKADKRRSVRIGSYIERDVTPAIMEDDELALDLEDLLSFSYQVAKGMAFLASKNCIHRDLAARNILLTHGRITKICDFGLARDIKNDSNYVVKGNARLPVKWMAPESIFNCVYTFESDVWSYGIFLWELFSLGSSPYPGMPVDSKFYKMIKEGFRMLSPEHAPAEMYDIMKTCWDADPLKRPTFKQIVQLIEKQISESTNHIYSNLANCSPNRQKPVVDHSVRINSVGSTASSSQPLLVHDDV

Row | IC50 [nM] | SMILES
1 | 10 to 40 | CNc1cc(Nc2cc(N)nc(CF)n2)ncc1C(=O)NC1CC1 [Compound 7, 6-((6-amino-2-(fluoromethyl)pyrimidin-4-yl)amino)-N-cyclopropyl-4-(methylamino)nicotinamide]
2 | < 10 | CNC(=O)c1cnc(Nc2cc(N)nc(CF)n2)cc1NC1CC1 [Compound 8, 6-((6-amino-2-(fluoromethyl)pyrimidin-4-yl)amino)-4-(cyclopropylamino)-N-methylnicotinamide]
3 | < 10 | CNC(=O)c1cnc(Nc2cc(N)nc(CF)n2)cc1NC(C)C [Compound 9, 6-((6-amino-2-(fluoromethyl)pyrimidin-4-yl)amino)-4-(isopropylamino)-N-methylnicotinamide]
4 | < 10 | CCNc1cc(Nc2cc(N)nc(C(F)F)n2)ncc1C(=O)NC [Compound 12, 6-((6-amino-2-(difluoromethyl)pyrimidin-4-yl)amino)-4-(ethylamino)-N-methylnicotinamide]
5 | < 10 | CNC(=O)c1cnc(Nc2cc(N)nc(CF)n2)cc1NC1CCC1 [Compound 14, 6-((6-amino-2-(fluoromethyl)pyrimidin-4-yl)amino)-4-(cyclobutylamino)-N-methylnicotinamide]
6 | 10 to 40 | CNC(=O)c1cnc(Nc2cc(N)nc([C@H](C)F)n2)cc1NC1CC1 [Compound 15, (S)-6-((6-amino-2-(1-fluoroethyl)pyrimidin-4-yl)amino)-4-(cyclopropylamino)-N-methylnicotinamide]
7 | > 40 | CNC(=O)c1cnc(Nc2cc(N)nc(CF)n2)cc1NC1COC1 [Compound 19, 6-((6-amino-2-(fluoromethyl)pyrimidin-4-yl)amino)-N-methyl-4-(oxetan-3-ylamino)nicotinamide]
8 | < 10 | CNC(=O)c1cnc(Nc2cc(N)nc(C(F)F)n2)cc1NC1CC1 [Compound 23, 6-((6-amino-2-(difluoromethyl)pyrimidin-4-yl)amino)-4-(cyclopropylamino)-N-methylnicotinamide]
9 | < 10 | CNc1cc(Nc2cc(N)nc(C(F)F)n2)ncc1C(=O)NC1CC1 [Compound 24, 6-((6-amino-2-(difluoromethyl)pyrimidin-4-yl)amino)-N-cyclopropyl-4-(methylamino)nicotinamide]
10 | < 10 | [2H]C([2H])([2H])NC(=O)c1cnc(Nc2cc(N)nc(C(F)F)n2)cc1NC1CC1 [Compound 31, 6-((6-amino-2-(difluoromethyl)pyrimidin-4-yl)amino)-4-(cyclopropylamino)-N-(methyl-d3)nicotinamide]
11 | > 40 | CNC(=O)c1cnc(Nc2cc(N)nc(CF)n2)cc1N[C@@H]1CCOC1 [Compound 35, (R)-6-((6-amino-2-(fluoromethyl)pyrimidin-4-yl)amino)-N-methyl-4-((tetrahydrofuran-3-yl)amino)nicotinamide]
12 | > 40 | CNC(=O)c1cnc(Nc2cc(N)nc(CF)n2)cc1N[C@H]1CCOC1 [Compound 36, (S)-6-((6-amino-2-(fluoromethyl)pyrimidin-4-yl)amino)-N-methyl-4-((tetrahydrofuran-3-yl)amino)nicotinamide]
13 | < 10 | CNC(=O)c1cnc(Nc2cc(N)nc(C(F)F)n2)cc1NC1CCC1 [Compound 37, 6-((6-amino-2-(difluoromethyl)pyrimidin-4-yl)amino)-4-(cyclobutylamino)-N-methylnicotinamide]
14 | < 10 | CCNC(=O)c1cnc(Nc2cc(N)nc(C(F)F)n2)cc1NC1CC1 [Compound 38, 6-((6-amino-2-(difluoromethyl)pyrimidin-4-yl)amino)-4-(cyclopropylamino)-N-ethylnicotinamide]

Continued, compound first:

Row | SMILES | IC50 [nM]
15 | [2H]C([2H])([2H])NC(=O)c1cnc(Nc2cc(N)nc(C(F)F)n2)cc1NC [Compound 6, 6-((6-amino-2-(difluoromethyl)pyrimidin-4-yl)amino)-N-(methyl-d3)-4-(methylamino)nicotinamide] | 10 to 40
16 | CCNc1cc(Nc2cc(N)nc([C@@H](C)F)n2)ncc1C(=O)NC [Compound 10, (R)-6-((6-amino-2-(1-fluoroethyl)pyrimidin-4-yl)amino)-4-(ethylamino)-N-methylnicotinamide] | > 40
17 | CCNc1cc(Nc2cc(N)nc([C@H](C)F)n2)ncc1C(=O)NC [Compound 11, (S)-6-((6-amino-2-(1-fluoroethyl)pyrimidin-4-yl)amino)-4-(ethylamino)-N-methylnicotinamide] | < 10
18 | CCNC(=O)c1cnc(Nc2cc(N)nc(C(F)F)n2)cc1NC [Compound 13, 6-((6-amino-2-(difluoromethyl)pyrimidin-4-yl)amino)-N-ethyl-4-(methylamino)nicotinamide] | 10 to 40
19 | CNc1cc(Nc2cc(N)nc(C(F)F)n2)ncc1-c1cn(C)nn1 [Compound 17, 2-(difluoromethyl)-N4-(5-(1-methyl-1H-1,2,3-triazol-4-yl)-4-(methylamino)pyridin-2-yl)pyrimidine-4,6-diamine] | 10 to 40
20 | CNc1cc(Nc2cc(N)nc(C(F)F)n2)ncc1-c1cnn(C)n1 [Compound 18, 2-(difluoromethyl)-N4-(5-(2-methyl-2H-1,2,3-triazol-4-yl)-4-(methylamino)pyridin-2-yl)pyrimidine-4,6-diamine] | 10 to 40
21 | CNC(=O)c1cnc(Nc2cc(N)nc([C@@H](C)F)n2)cc1NC(C)C [Compound 20, (R)-6-((6-amino-2-(1-fluoroethyl)pyrimidin-4-yl)amino)-4-(isopropylamino)-N-methylnicotinamide] | > 40
22 | CNC(=O)c1cnc(Nc2cc(N)nc([C@H](C)F)n2)cc1NC(C)C [Compound 21, (S)-6-((6-amino-2-(1-fluoroethyl)pyrimidin-4-yl)amino)-4-(isopropylamino)-N-methylnicotinamide] | < 10
23 | CNc1cc(Nc2cc(N)nc(C(F)F)n2)ncc1C(=O)NCC#N [Compound 22, 6-((6-amino-2-(difluoromethyl)pyrimidin-4-yl)amino)-N-(cyanomethyl)-4-(methylamino)nicotinamide] | > 40
24 | CCCNc1cc(Nc2cc(N)nc(C(F)F)n2)ncc1C(=O)NC [Compound 26, 6-((6-amino-2-(difluoromethyl)pyrimidin-4-yl)amino)-N-methyl-4-(propylamino)nicotinamide] | < 10
25 | CNc1cc(Nc2cc(N)nc(C(F)F)n2)ncc1C(=O)NC(C)C [Compound 29, 6-((6-amino-2-(difluoromethyl)pyrimidin-4-yl)amino)-N-isopropyl-4-(methylamino)nicotinamide] | < 10
26 | CCNC(=O)c1cnc(Nc2cc(N)nc(C(F)F)n2)cc1NCC [Compound 30, 6-((6-amino-2-(difluoromethyl)pyrimidin-4-yl)amino)-N-ethyl-4-(ethylamino)nicotinamide] | 10 to 40
27 | Cn1cc(-c2cnc(Nc3cc(N)nc(CF)n3)cc2OC2CC2)cn1 [Compound 32, N4-(4-cyclopropoxy-5-(1-methyl-1H-pyrazol-4-yl)pyridin-2-yl)-2-(fluoromethyl)pyrimidine-4,6-diamine] | < 10
28 | CC(C)Oc1cc(Nc2cc(N)nc(CF)n2)ncc1-c1cnn(C)c1 [Compound 33, 2-(fluoromethyl)-N4-(4-isopropoxy-5-(1-methyl-1H-pyrazol-4-yl)pyridin-2-yl)pyrimidine-4,6-diamine] | < 10
29 | CCOc1cc(Nc2cc(N)nc(C(F)F)n2)ncc1-c1cnn(C)c1 [Compound 34, 2-(difluoromethyl)-N4-(4-ethoxy-5-(1-methyl-1H-pyrazol-4-yl)pyridin-2-yl)pyrimidine-4,6-diamine] | < 10
